Measurements from article PMC8457056, “Remodeling of the Fibrillation Pathway of α‐Synuclein by Interaction with Antimicrobial Peptide LL‐III” (Chemistry (Weinheim an Der Bergstrasse, Germany), 2021).

System: α‐Syn
Assay: atomic force microscopy of α-Syn fibrils
Type: biochemical, human
Settings: 20 μM α-Syn, dried on mica, 20 mM sodium acetate, pH 5.0, room temperature
Method: To verify inhibition of α‐Syn fibril formation upon addition of LL‐III, atomic force microscopy (AFM) experiments were carried out. To this end, a 20 μM solution of α‐Syn in the absence and in the presence of LL‐III was dried on a mica surface and AFM pictures were recorded. Under such conditions, liquid droplets could not be detected. In the absence of LL‐III, short fibril‐like structures were observed (Figure S3).
The lyophilized powders of the labeled and unlabeled LL-III peptide were purchased from GenScript, Germany.
The sequence of the LL-III peptide is NH2-VNWKKIL GKIIKVVK -CONH2. In th e labeled peptide, the fluorophore 6-carboxyfluorescein (FAM) was covalently attached to the N-terminus of the peptide. […]
The expression and purification of α-synuclein (α-Syn) was carried out as described before.[1,2] […] A single colony was picked and inoculated into 100 m l LB medium containing 150 μg/m l ampicillin and grown at 37°C with shaking at 250 rpm until the absorbance at 600 nm reached 0.8. […]
Phase-contrast light and fluorescence microscopy
The light and fluorescence microscopy experiments were performed using an Eclipse TE2000- U (Nikon Inc.) op-tical microscope with a Nikon Plan Fluor 20x objective (NA 0.45 WD 7.4) coupled to an TIS DMK 23UX249 camera. […] Fluorescence microscopy experiments were performed using 6-carboxyfluorescein- l abel ed LL- III (FAM-LL-III) exciting at 488 nm. […]

Substance: NH2-VNWKKIL GKIIKVVK -CONH2 [LL‐III]
- fibrils by AFM (200 μM LL-III): some fibrils of smaller size were still visible after drying
- fibrils by AFM (500 μM LL-III): fibrillar structures could no longer be detected
